The CheMixHub viscosity set

Assay: xn = mol fraction of the nth substance listed

CCCCCCCC[n+]1ccn(C)c1.F[B-](F)(F)F + COC(C)=O
Details | viscosity [mPa·s]
298.15 K, 101 kPa, x1 = 0.7036 | 69.93

C1CCCCCCCCCCC1 + Cc1ccccc1
303 K, 101 kPa
Details | viscosity [mPa·s]
x1 = 0.0186 | 0.5245
x2 = 0.8099 | 0.6724
x2 = 0.9012 | 0.5699
x2 = 0.9426 | 0.5336

Cc1cccc2ccccc12 + Cc1ccccc1
viscosity [mPa·s], 100 kPa
Details | x2 = 0.2784 | x2 = 0.6068 | x2 = 0.8224
298.15 K | 1.646 | 1.036 | 0.731
313.15 K | 1.285 | 0.841 | 0.608

O=[N+]([O-])c1ccccc1O + Cc1ccccc1
viscosity [mPa·s], 101 kPa
Details | 303.15 K | 308.15 K | 313.15 K | 318.15 K | 323.15 K
x1 = 0.5473 | 1.278 | 1.182 | 1.088 | 1.011 | 0.942
x1 = 0.7633 | – | 1.838 | 1.672 | 1.528 | 1.411

CC1CCCCC1=O (configuration not stated) + NC=O
viscosity [mPa·s], 100 kPa
Details | x1 = 0.1005 | x1 = 0.1979 | x1 = 0.2917 | x1 = 0.4002 | x1 = 0.5089 | x1 = 0.6019 | x1 = 0.6999 | x1 = 0.8001 | x1 = 0.9001
303.15 K | 2.822 | 2.768 | 2.712 | 2.644 | 2.575 | 2.513 | 2.446 | 2.375 | 2.302
308.15 K | 2.583 | 2.549 | 2.513 | 2.468 | 2.42 | 2.378 | 2.331 | 2.281 | 2.228
313.15 K | 2.346 | 2.332 | 2.315 | 2.291 | 2.265 | 2.242 | 2.217 | 2.188 | 2.154

CN(C)CCCO + NCCCO
viscosity [mPa·s], 100 kPa
Details | x2 = 0.1 | x2 = 0.1998 | x2 = 0.2997 | x2 = 0.4008 | x2 = 0.5 | x2 = 0.5024 | x2 = 0.6004 | x2 = 0.7021 | x2 = 0.7992 | x2 = 0.9007
293.15 K | 8.883 | 10.61 | 12.71 | 15.1 | 18.49 | 18.49 | 21.41 | 24.67 | 29.63 | 34.66
303.15 K | 6.062 | 7.04 | 8.322 | 9.824 | 11.73 | 11.73 | 13.48 | 15.36 | 18.09 | 20.64
313.15 K | 4.35 | 5.099 | 5.838 | 6.628 | 7.819 | 7.819 | 8.782 | 9.908 | 11.62 | 13.22
323.15 K | 3.23 | 3.72 | 4.206 | 4.668 | 5.389 | 5.389 | 6.034 | 6.779 | 7.862 | 8.889

CC(O)CN(C)C (configuration not stated) + NCc1ccccc1
viscosity [mPa·s], 101 kPa
Details | x1 = 0.1003 | x1 = 0.1998 | x1 = 0.3 | x1 = 0.4001 | x1 = 0.5002 | x1 = 0.5999 | x1 = 0.7 | x1 = 0.8 | x1 = 0.8997
293.15 K | 1.87 | 1.91 | 1.92 | 1.91 | 1.88 | 1.84 | 1.78 | 1.7 | 1.6
303.15 K | 1.5 | 1.51 | 1.51 | 1.5 | 1.48 | 1.44 | 1.39 | 1.33 | 1.25
313.15 K | 1.23 | 1.23 | 1.22 | 1.21 | 1.18 | 1.14 | 1.1 | 1.05 | 1
323.15 K | 1.06 | 1.05 | 1.03 | 1.01 | 0.98 | 0.95 | 0.91 | 0.87 | 0.83

O=[N+]([O-])c1ccccc1O + Nc1ccccc1
viscosity [mPa·s], 101 kPa
Details | x1 = 0.07555 | x1 = 0.1616 | x1 = 0.246 | x1 = 0.3265 | x1 = 0.4134 | x1 = 0.5065 | x1 = 0.5908 | x1 = 0.6928 | x1 = 0.7919 | x1 = 0.878
303.15 K | 2.972 | 2.863 | 2.805 | 2.802 | 2.828 | 2.881 | 2.952 | 3.068 | 3.225 | –
313.15 K | 2.322 | 2.257 | 2.224 | 2.215 | 2.23 | 2.272 | 2.328 | 2.415 | 2.515 | 2.61
